# Measurements taken from patent US10717736B2, “Pyrrole amides as alpha V integrin inhibitors” (BRISTOL-MYERS SQUIBB COMPANY, priority 2016, dated 2020).
# Counter-ions that a name gives are not always drawn.
# What was measured:
# human αVβ6 Integrin = molecular target: T1, human αVβ6 Integrin (Homo sapiens, UniProt P06756+P18564); assay: human αVβ6 HTRF binding assay
# T1 construct: purchased R & D systems 3817-AV
# Procedure: (§1) All binding assays used the HTRF (homogeneous time resolved fluorescence) technology from Cisbio International, therefore all assays are described as HTRF binding assays. The assay results for the Examples are listed above together with the characterization data. The HTRF binding assays are established for the following integrins: human αVβ6, human αVβ1, human αVβ3, human αVβ5, and human αVβ8. All assays used the following assay buffer: 20 mM Tris, pH 7.4, 1 mM MgCl2, 1 mM MnCl2, 0.01% Tween 20, and 0.01% BSA. Alternatively, a SPA-based assay was used for evaluation of receptor binding.
# (§2) The following describes the components and a representative procedure for the human αVβ6 HTRF binding assay: Recombinant human αVβ6 Integrin (R & D systems, 3817-AV) was biotinylated. Biotinylated human αVβ6 Integrin was added to assay vessel at a final concentration of 1.25 nM. FITC-conjugated fibronectin (Cytoskeleton, FNR02) was then added at the final concentration of 5 nM. The mixture was centrifuged at 600 rpm for three minutes using Thermo Fisher Heraeus Multifuge X3 centrifuge and then incubated at RT for an hour. Streptavidin Terbium (Cisbio international 610STLB) was then added at the final concentration of 0.625 nM. The resulting mixture was centrifuged at 600 rpm for three minutes using Thermo Fisher Heraeus Multifuge X3 centrifuge and then incubated at room temperature overnight in dark before reading HTRF signals.
# human αVβ1 = human αVβ1 (Homo sapiens, UniProt P05556+P06756); assay: human αVβ1 HTRF binding assay
# Chain of human αVβ1 (P06756 31-992 limits assumed): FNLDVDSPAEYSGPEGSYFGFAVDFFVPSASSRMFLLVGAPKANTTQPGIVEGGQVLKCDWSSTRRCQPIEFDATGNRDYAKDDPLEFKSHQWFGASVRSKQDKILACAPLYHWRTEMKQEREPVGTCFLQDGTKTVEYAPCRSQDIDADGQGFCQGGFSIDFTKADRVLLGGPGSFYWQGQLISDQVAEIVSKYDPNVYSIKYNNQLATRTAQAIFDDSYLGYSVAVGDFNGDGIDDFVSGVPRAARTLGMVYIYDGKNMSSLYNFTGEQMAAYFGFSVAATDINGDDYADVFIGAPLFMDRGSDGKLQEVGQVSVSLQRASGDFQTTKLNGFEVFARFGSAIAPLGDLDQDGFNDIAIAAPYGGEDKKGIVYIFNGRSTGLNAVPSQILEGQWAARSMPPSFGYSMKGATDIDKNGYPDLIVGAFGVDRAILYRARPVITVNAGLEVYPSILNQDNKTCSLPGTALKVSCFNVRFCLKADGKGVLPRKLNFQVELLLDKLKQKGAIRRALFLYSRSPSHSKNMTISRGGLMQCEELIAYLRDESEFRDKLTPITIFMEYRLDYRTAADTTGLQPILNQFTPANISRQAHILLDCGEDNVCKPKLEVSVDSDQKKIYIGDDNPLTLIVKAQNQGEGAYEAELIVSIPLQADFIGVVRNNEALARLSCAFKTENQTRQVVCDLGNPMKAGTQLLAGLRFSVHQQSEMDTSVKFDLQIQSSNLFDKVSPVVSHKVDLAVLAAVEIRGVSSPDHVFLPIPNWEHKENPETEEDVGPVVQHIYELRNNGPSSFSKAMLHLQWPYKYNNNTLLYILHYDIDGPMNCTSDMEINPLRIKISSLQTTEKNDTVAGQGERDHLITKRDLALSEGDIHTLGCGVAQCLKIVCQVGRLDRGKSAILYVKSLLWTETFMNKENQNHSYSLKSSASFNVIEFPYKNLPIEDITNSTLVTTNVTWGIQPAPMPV
# Chain of human αVβ1 (P05556 21-728 limits assumed): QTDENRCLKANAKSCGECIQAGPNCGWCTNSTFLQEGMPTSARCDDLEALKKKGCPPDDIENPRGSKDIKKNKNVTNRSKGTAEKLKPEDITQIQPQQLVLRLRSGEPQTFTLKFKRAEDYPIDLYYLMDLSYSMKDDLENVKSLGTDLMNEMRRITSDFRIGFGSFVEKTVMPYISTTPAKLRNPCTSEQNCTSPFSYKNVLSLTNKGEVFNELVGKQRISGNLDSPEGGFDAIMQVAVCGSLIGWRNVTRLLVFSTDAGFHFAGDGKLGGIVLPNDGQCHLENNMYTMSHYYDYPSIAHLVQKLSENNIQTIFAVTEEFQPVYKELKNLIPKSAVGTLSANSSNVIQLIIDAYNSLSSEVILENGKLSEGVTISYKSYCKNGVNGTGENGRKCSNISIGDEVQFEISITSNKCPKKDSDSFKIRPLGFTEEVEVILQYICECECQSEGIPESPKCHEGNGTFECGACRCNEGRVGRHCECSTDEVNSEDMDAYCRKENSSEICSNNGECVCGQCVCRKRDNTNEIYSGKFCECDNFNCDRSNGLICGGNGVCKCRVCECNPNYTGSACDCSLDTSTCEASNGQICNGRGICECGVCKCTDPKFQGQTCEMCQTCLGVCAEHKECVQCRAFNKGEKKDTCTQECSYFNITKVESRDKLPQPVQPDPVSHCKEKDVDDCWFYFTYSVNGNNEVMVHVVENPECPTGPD
# Procedure: as §1, §2
# human αVβ3 = human αVβ3 (Homo sapiens, UniProt P05106+P06756); assay: human αVβ3 HTRF binding assay
# Chain of human αVβ3 (P06756 31-992 limits assumed): as the sequence (P06756 31-992 limits assumed) above
# Chain of human αVβ3 (P05106 27-718 limits assumed): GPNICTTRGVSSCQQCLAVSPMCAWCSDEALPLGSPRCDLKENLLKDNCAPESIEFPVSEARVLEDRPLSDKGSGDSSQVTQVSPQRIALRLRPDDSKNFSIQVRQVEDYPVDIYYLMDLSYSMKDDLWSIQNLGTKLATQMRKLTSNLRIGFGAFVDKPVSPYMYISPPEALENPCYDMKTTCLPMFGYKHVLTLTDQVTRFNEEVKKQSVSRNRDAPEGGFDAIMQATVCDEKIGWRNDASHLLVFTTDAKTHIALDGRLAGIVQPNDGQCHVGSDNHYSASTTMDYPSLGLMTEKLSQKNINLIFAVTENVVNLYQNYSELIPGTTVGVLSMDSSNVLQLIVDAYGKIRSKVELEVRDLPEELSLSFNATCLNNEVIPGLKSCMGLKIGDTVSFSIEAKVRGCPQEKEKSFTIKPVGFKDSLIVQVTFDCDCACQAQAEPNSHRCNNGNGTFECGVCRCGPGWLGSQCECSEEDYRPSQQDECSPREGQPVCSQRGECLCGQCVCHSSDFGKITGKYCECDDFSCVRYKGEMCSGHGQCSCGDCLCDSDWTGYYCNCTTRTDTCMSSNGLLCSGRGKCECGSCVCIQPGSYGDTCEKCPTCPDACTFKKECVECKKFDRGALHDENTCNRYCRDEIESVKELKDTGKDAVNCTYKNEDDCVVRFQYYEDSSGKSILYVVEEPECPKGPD
# Procedure: as §1, §2
# human αVβ5 = human αVβ5 (Homo sapiens, UniProt P06756+P18084); assay: human αVβ5 HTRF binding assay
# Chain of human αVβ5 (P06756 31-992 limits assumed): as the sequence (P06756 31-992 limits assumed) above
# Chain of human αVβ5 (P18084 24-719 limits assumed): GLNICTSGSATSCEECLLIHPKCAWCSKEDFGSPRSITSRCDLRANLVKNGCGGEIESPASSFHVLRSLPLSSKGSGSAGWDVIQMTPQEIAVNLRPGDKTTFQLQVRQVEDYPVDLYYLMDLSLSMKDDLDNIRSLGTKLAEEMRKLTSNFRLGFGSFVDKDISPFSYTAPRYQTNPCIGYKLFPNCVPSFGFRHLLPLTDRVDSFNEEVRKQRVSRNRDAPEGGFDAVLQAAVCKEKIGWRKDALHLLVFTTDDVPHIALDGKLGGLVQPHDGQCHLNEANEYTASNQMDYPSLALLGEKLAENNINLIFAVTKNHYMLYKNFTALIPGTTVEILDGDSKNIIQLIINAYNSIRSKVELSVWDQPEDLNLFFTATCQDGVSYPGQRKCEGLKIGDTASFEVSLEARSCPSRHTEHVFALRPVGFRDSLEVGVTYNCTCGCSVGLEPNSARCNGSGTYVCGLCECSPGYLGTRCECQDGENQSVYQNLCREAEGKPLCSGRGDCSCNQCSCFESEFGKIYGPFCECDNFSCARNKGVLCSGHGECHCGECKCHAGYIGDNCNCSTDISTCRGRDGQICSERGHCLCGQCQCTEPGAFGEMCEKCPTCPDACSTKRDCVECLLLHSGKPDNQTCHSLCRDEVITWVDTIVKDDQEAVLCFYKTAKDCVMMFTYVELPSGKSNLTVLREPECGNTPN
# Procedure: as §1, §2
# human αVβ8 = human αVβ8 (Homo sapiens, UniProt P06756+P26012); assay: human αVβ8 HTRF binding assay
# Chain of human αVβ8 (P06756 31-992 limits assumed): as the sequence (P06756 31-992 limits assumed) above
# Chain of human αVβ8 (P26012 43-684 limits assumed): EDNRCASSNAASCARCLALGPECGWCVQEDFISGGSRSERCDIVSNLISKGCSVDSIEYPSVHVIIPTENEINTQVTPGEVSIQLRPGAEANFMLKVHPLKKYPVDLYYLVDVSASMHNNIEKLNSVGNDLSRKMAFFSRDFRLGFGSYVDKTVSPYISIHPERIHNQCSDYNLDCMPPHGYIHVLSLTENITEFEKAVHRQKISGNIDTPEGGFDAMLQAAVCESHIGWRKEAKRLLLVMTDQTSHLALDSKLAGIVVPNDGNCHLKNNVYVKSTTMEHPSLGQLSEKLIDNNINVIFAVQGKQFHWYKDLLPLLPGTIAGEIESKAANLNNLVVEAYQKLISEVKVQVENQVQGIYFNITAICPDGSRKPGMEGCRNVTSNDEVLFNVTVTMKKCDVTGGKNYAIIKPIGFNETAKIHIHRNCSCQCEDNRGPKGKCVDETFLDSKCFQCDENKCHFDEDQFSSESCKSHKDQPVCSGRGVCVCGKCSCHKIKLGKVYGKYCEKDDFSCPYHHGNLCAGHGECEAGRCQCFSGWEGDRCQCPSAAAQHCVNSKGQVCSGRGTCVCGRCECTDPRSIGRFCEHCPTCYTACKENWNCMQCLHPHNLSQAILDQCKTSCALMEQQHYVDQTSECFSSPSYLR
# Procedure: as §1, §2
# T1 sequence (P06756 31-992 limits assumed): as the sequence (P06756 31-992 limits assumed) above
# T1 sequence (P18564 22-707 limits assumed): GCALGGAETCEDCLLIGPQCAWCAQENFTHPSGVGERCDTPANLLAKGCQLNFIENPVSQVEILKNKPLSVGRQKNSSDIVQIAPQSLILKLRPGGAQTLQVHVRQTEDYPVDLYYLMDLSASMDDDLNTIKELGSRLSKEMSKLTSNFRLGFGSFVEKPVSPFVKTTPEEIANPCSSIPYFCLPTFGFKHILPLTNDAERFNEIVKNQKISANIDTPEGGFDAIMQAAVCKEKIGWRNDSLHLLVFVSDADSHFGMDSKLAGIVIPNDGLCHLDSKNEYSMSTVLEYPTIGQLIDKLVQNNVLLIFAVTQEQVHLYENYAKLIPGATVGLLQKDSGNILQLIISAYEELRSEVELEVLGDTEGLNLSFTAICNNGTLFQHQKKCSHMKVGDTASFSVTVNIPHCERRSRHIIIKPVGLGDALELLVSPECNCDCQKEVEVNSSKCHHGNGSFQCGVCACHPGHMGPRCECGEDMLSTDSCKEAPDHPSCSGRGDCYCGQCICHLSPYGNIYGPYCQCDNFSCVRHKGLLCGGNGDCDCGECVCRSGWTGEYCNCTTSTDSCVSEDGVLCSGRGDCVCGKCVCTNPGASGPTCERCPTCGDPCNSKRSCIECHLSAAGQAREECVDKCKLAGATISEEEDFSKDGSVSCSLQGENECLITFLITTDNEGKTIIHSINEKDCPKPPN
SMILES,IC50 (human αVβ6 Integrin) [nM],IC50 (human αVβ1) [nM],IC50 (human αVβ3) [nM],IC50 (human αVβ5) [nM],IC50 (human αVβ8) [nM]
COc1ccc([C@@H](CC(=O)O)NC(=O)c2cc(CCc3ccc4c(n3)NCCC4)c[nH]2)cc1F [Example 3],229,,,,
"O=C(N[C@@H](CNC(=O)c1cc(CCc2ccc3c(n2)NCCC3)c[nH]1)C(=O)O)OC1CCCC1 [Example 26, (S)-2-(((Cyclopentyloxy)carbonyl)amino)-3-(4-(2-(5,6,7,8-tetrahydro-1,8-naphthyridin-2-yl)ethyl)-1H-pyrrole-2-carboxamido)propanoic Acid]",0.28,,1.67,0.09,8.78
O=C(O)CC(NC(=O)c1cc(CCc2ccc3c(n2)NCCC3)c[nH]1)c1cnc2ccccc2n1 (stereo not shown) [Example 18],25.9,,,,
O=C(O)C[C@H](NC(=O)c1cc(CCc2ccc3c(n2)NCCC3)c[nH]1)c1cc(Cl)cc(Cl)c1 [Example 11],2.03,,,,
O=C(O)CC(NC(=O)c1cc(CCc2ccc3c(n2)NCCC3)c[nH]1)c1cncnc1 (stereo not shown) [Example 15],11.9,,,,
COc1ccc([C@H](CC(=O)O)NC(=O)c2cc(CCc3ccc4c(n3)NCCC4)c[nH]2)cn1 [Example 7],4,,,,
"COc1ccc([C@H](CC(=O)O)NC(=O)c2cc(CCc3ccc4c(n3)NCCC4)c[nH]2)cc1F [Example 1, (S)-3-(3-Fluoro-4-methoxyphenyl)-3-(4-(2-(5,6,7,8-tetrahydro-1,8-naphthyridin-2-yl)ethyl)-1H-pyrrole-2-carboxamido)propanoic Acid]",2.55,,,,
"COc1ccc([C@H](CC(=O)O)NC(=O)c2cc(CCC3CCc4cccnc4N3)c[nH]2)cc1F (mixture of isomers) [Example 2, (3S)-3-(3-Fluoro-4-methoxyphenyl)-3-(4-(2-(1,2,3,4-tetrahydro-1,8-naphthyridin-2-yl)ethyl)-1H-pyrrole-2-carboxamido)propanoic Acid]",3.75,,,,
CCn1cc(CCc2ccc3c(n2)NCCC3)cc1C(=O)N[C@@H](CC(=O)O)c1ccc(OC)nc1 [Example 9],46.8,,,,
CCn1cc(CCc2ccc3c(n2)NCCC3)cc1C(=O)N[C@@H](CC(=O)O)c1ccc(OC)c(F)c1 [Example 5],50.3,,,,
Cc1ncc([C@H](CC(=O)O)NC(=O)c2cc(CCCc3ccc4c(n3)NCCC4)c[nH]2)cn1 [Example 21],167,,,,

# Results, then the compound that gave them:
IC50 (human αVβ6 Integrin) [nM],IC50 (human αVβ1) [nM],IC50 (human αVβ3) [nM],IC50 (human αVβ5) [nM],IC50 (human αVβ8) [nM],SMILES
5.93,,,,,COc1ccc([C@H](CC(=O)O)NC(=O)c2cc(CCc3ccc4c(n3)NCCC4)c(C)[nH]2)cc1F [Example 6]
4.63,1220,3.68,0.85,3760,O=C(O)C[C@H](NC(=O)c1cc(CCc2ccc3c(n2)NCCC3)c[nH]1)c1ccc2c(c1)OCC2 [Example 17]
22.1,,,,,COc1ccc([C@H](CC(=O)O)NC(=O)c2cc(CCc3ccc4c(n3)NCCC4)cn2C)cc1F [Example 4]
1.1,360,3.44,1.73,,O=C(O)C[C@H](NC(=O)c1cc(CCc2ccc3c(n2)NCCC3)c[nH]1)c1cnc2ccccc2c1 [Example 16]
22.4,,,,,COc1ccc([C@H](CC(=O)O)NC(=O)c2cc(CCCc3ccc4c(n3)NCCC4)c[nH]2)cn1 [Example 20]
1.02,,5.36,0.54,9.06,"Cc1cc(C)c(S(=O)(=O)N[C@@H](CNC(=O)c2cc(CCc3ccc4c(n3)NCCC4)c[nH]2)C(=O)O)c(C)c1 [Example 23, (S)-3-(4-(2-(5,6,7,8-Tetrahydro-1,8-naphthyridin-2-yl)ethyl)-1H-pyrrole-2-carboxamido)-2-((2,4,6-trimethylphenyl)sulfonamido)propanoic Acid]"
3.96,,2.49,10.4,415,COc1ccc([C@H](CC(=O)O)NC(=O)c2cc(CCc3ccc4c(n3)NCCC4)c(C)[nH]2)cn1 [Example 10]
0.34,,1.5,0.16,12.6,"O=C(N[C@@H](CNC(=O)c1cc(CCc2ccc3c(n2)NCCC3)c[nH]1)C(=O)O)OCc1ccccc1 [Example 25, (S)-2-(((Benzyloxy)carbonyl)amino)-3-(4-(2-(5,6,7,8-tetrahydro-1,8-naphthyridin-2-yl)ethyl)-1H-pyrrole-2-carboxamido)propanoic Acid, TFA]"
7.17,3710,4.69,5.68,,COc1ncc(C(CC(=O)O)NC(=O)c2cc(CCc3ccc4c(n3)NCCC4)c[nH]2)cn1 (stereo not shown) [Example 14]
0.63,,,,,CC(C)(C)c1cc(Br)cc([C@H](CC(=O)O)NC(=O)c2cc(CCc3ccc4c(n3)NCCC4)c[nH]2)c1 [Example 12]
14.5,,,,,COc1ncc([C@H](CC(=O)O)NC(=O)c2cc(CCCc3ccc4c(n3)NCCC4)c[nH]2)cn1 [Example 22]
22.5,,,,,COc1ccc([C@H](CC(=O)O)NC(=O)c2cc(CCc3ccc4c(n3)NCCC4)cn2C)cn1 [Example 8]
0.61,3.03,2,0.23,11.9,"Cc1cc(C)c(S(=O)(=O)N[C@@H](CNC(=O)c2cc(CCC3CCc4cccnc4N3)c[nH]2)C(=O)O)c(C)c1 (mixture of isomers) [Example 24, (2S)-3-(4-(2-(1,2,3,4-Tetrahydro-1,8-naphthyridin-2-yl)ethyl)-1H-pyrrole-2-carboxamido)-2-((2,4,6-trimethylphenyl)sulfonamido)propanoic Acid]"
6.7,4000,4.59,3.84,,Cc1ncc(C(CC(=O)O)NC(=O)c2cc(CCc3ccc4c(n3)NCCC4)c[nH]2)cn1 (stereo not shown) [Example 13]
81,,,,,COc1ccc([C@H](CC(=O)O)NC(=O)c2cc(-c3ccc4c(n3)NCCC4)c[nH]2)cc1F [Example 19]
